Measurements from article PMC4674819, “Identification of Novel Inhibitors of Organic Anion Transporting Polypeptides 1B1 and 1B3 (OATP1B1 and OATP1B3) Using a Consensus Vote of Six Classification Models” (Molecular Pharmaceutics, 2015).
“And” between values parts separate entries of the source, which are not always exact repeats. Equal values may be shown once. Where a name gives a salt, the structure may show the parent alone. Read-outs that look alike come from different tables or passages of the source.

Columns and labels:
OATP1B3 [1] = molecular target: T1, OATP1B3 (Homo sapiens, UniProt Q9NPD5); experiment: Inhibition of FMTX uptake in CHO cells stably transfected with OATP1B3; format: cell-based; settings: for Correctness of prediction, second symbol (OATP1B3): inhibitor class from measured IC50 against the consensus prediction
T1 construct: host or cells: CHO (Chinese hamster ovary) cells, stably transfected
T1 sequence (Q9NPD5 1-702): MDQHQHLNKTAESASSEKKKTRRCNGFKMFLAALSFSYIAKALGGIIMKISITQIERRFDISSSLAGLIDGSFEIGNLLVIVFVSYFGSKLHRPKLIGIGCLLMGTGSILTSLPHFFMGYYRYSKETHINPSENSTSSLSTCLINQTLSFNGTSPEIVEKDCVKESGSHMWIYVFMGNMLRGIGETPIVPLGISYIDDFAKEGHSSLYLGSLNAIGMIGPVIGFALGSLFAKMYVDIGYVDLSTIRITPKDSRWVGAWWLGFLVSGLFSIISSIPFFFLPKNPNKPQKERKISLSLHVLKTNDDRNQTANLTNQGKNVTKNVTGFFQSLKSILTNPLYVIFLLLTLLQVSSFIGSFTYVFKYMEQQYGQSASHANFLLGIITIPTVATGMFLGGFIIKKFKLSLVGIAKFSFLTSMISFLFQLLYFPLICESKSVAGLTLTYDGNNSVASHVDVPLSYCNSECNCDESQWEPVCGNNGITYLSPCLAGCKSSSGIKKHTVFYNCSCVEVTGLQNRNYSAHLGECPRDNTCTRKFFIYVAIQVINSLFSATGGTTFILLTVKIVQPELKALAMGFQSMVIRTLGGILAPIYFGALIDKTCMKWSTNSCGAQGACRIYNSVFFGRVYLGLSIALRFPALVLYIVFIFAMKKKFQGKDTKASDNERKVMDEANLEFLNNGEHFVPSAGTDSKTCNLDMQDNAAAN
Method: (§1) Chinese hamster ovary (CHO) cells that were stably transfected with OATP1B1 or OATP1B3 and wild-type CHO cells were provided by the University of Zurich, Switzerland, and have been extensively characterized previously.[24],[56],[57] Cells were grown in Dulbecco’s modified Eagle medium (DMEM) supplemented with 10% FCS, 50 μg/mL L-proline, 100 U/mL penicillin, and 100 μg/mL streptomycin. The culture media of the transfected CHO cells additionally contained 500 μg/mL Geneticin sulfate (G418) (Sigma-Aldrich, Munich, Germany). Media and supplements were obtained from Invitrogen (Karlsruhe, Germany). Cells were incubated at 5% CO2 and 37 °C. For uptake experiments, CHO cells were seeded in 24-well plates (BD Biosciences, Heidelberg, Germany) at a density of 25,000 cells/well. Uptake assays were generally performed on day 3 after seeding, when the cells had grown to confluence. 24 h before starting the transport experiments, cells were additionally treated with 5 mM sodium butyrate (Sigma-Aldrich, Munich, Germany) to induce gene expression. Prior to the uptake experiments, cells were rinsed twice with 2 mL of prewarmed (37 °C) uptake buffer (116.4 mM NaCl, 5.3 mM KCL, 1 mM NaH2PO4, 0.8 mM MgSO4, 5.5 mM D-glucose, and 20 mM Hepes, pH adjusted to 7.4). Uptake was initiated by adding 0.5 mL of uptake buffer containing 5 μM of the fluorescent OATP1B1/1B3 substrate FMTX[58] in the presence or absence of inhibitors. After 10 min culture at 37 °C, uptake was stopped by removing the uptake solution and washing the cells 3 times with ice-cold uptake buffer. The cells were then lysed with 0.5 mL of 0.5% Triton X-100 solution dissolved in PBS and placed on a plate shaker for 30 min. Fluorescence was measured in an Enspire Multimode plate reader (PerkinElmer, Waltham, MA) at an excitation wavelength of 485 and an emission wavelength of 528 nm.
(§2) IC50 values were determined by plotting the log inhibitor concentration against the net uptake rate and nonlinear regression of the data set using the equation [drawing 1] in which y is the net uptake rate (pmol/μg of protein/min), I is the inhibitor concentration (μM), s is the slope at the point of inversion, and a and b are the maximum and minimum values for cellular uptake (GraphPad Software, San Diego, CA, USA) . Net uptake was calculated for each inhibitor concentration as the difference in the uptake rates of the transporter-expressing and wild-type cell lines. Unless otherwise indicated, values are expressed as mean ± SD of three individual experiments. Significant differences from control values were determined using a Student’s paired t test at a significance level of p < 0.05.

OATP1B1 [2] = molecular target: T2, OATP1B1 (Homo sapiens, UniProt Q9Y6L6); experiment: Inhibition of FMTX uptake in CHO cells stably transfected with OATP1B1; format: cell-based; settings: for IC50: CHO cells stably transfected with OATP1B1, 5 μM FMTX, 10 min, 37 °C, means ± SD of three independent experiments; for Correctness of prediction, first symbol (OATP1B1): inhibitor class from measured IC50 against the consensus prediction
T2 construct: host or cells: CHO (Chinese hamster ovary) cells, stably transfected
T2 sequence (Q9Y6L6 1-691): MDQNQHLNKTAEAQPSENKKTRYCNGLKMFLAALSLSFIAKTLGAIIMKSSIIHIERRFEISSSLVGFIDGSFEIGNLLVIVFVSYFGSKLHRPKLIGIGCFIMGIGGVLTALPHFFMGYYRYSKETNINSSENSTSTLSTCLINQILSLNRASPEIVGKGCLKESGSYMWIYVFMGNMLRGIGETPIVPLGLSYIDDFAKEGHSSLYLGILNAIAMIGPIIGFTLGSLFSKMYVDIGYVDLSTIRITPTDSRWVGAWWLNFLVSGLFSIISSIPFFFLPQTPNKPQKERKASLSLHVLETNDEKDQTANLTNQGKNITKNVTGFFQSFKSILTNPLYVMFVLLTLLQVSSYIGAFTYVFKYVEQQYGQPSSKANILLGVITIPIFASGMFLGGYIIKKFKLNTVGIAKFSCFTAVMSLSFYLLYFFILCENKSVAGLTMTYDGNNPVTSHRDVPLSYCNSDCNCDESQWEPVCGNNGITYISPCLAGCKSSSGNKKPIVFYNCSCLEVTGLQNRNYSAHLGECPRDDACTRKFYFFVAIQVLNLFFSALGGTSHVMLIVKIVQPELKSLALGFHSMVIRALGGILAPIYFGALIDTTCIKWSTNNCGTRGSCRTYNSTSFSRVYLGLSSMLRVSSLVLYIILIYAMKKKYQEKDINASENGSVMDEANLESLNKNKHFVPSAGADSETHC
Method: as §1, §2

[3] = cited from earlier work
OATP1B3 [4] = settings: commercial library of 640 FDA-approved drugs; cited from earlier work
OATP1B1 [5] = tested on: OATP1B1; parameters: method as in PMID 25603031; settings: commercial library of 640 FDA-approved drugs; cited from earlier work
OATP1B1 [6] = tested on: OATP1B1; parameters: method as in PMID 22541068; settings: cited from earlier work
OATP1B1 [7] = tested on: OATP1B1; parameters: method as in PMID 23571415; settings: cited from earlier work
[8] = CHO cells stably transfected with OATP1B3, 5 μM FMTX, 10 min, 37 °C, means ± SD of three independent experiments, read-out: IC50 (μM) OATP1B3
[9] = remark printed after the IC50 value, read-out: OATP1B3 inhibition, remark in the IC50 cell

Row | SMILES | IC50 (OATP1B3 [1]; [8]) | Correctness of prediction, second symbol (OATP1B3) (OATP1B3 [1]) | IC50 (OATP1B1 [2]) | Correctness of prediction, first symbol (OATP1B1) (OATP1B1 [2]) | hepatotoxicity, literature reports [3] | hyperbilirubinemia, reports in online sources and literature [3] | OATP1B1 inhibition, result in words (OATP1B1 [2]; false negative of the OATP1B1 consensus model) | rank among OATP1B3 inhibitors in the screen of van de Steeg et al. (OATP1B3 [4]) | rank among OATP1B1 inhibitors in the screen of van de Steeg et al. (OATP1B1 [5]) | effect on liver injury, literature report ([3]; diabetic patients) | IC50 (OATP1B3 [1]; [9]) | hepatic serum enzymes, literature report [3] | OATP1B1 inhibition class as evaluated by Karlgren et al. (OATP1B1 [6]) | OATP1B1 inhibition class as annotated by De Bruyn et al. (OATP1B1 [7])
1 | CC(C)C[C@H](NC(=O)[C@H](CCc1ccccc1)NC(=O)CN1CCOCC1)C(=O)N[C@@H](Cc1ccccc1)C(=O)N[C@@H](CC(C)C)C(=O)[C@@]1(C)CO1 [Carfilzomib] | 0.9 ± 0.17 µM | +++,+++ (strong inhibitor (IC50 values less than 1 μM)) | 0.38 ± 0.12 µM | +++,+++ (strong inhibitor (IC50 values less than 1 μM)) |  |  |  |  |  |  |  |  |  | 
2 | CCCCc1oc2ccc(NS(C)(=O)=O)cc2c1C(=O)c1ccc(OCCCN(CCCC)CCCC)cc1 [Dronedarone hydrochlorid e] | 1.12 ± 0.2 µM | ++ (moderately strong inhibitor (IC50 values between 1 and 5 μM)) | 0.32 ± 0.07 µM | +++ (strong inhibitor (IC50 values less than 1 μM)) | some literature reports for hepatotoxicity | causing hyperbilirubinemia |  |  |  |  |  |  |  | 
3 | Cc1cc2nc3c(=O)[nH]c(=O)nc-3n(C[C@H](O)[C@H](O)[C@H](O)COP(=O)(O)OP(=O)(O)OC[C@H]3O[C@@H](n4cnc5c(N)ncnc54)[C@H](O)[C@@H]3O)c2cc1C [Flavin adenine dinucleotide] | 10 ± 0.78 µM | + (moderate inhibitors (IC50 values between 5 and 10 μM)) | 6.62 ± 1.15 µM | x (wrong class prediction) |  |  | OATP1B1 inhibitor |  |  |  |  |  |  | 
4 | CCC(=O)O[C@@H](O[P@](=O)(CCCCc1ccccc1)CC(=O)N1C[C@H](C2CCCCC2)C[C@H]1C(=O)O)C(C)C [Fosinopril sodium] | 5.19 ± 0.98 µM | +,+ (moderate inhibitors (IC50 values between 5 and 10 μM)) | 6.28 ± 1.13 µM | +,+ (moderate inhibitors (IC50 values between 5 and 10 μM)) | some literature reports for hepatotoxicity | causing hyperbilirubinemia |  | 20 strongest OATP1B1 and OATP1B3 inhibitors | 20 strongest OATP1B1 and OATP1B3 inhibitors |  |  |  |  | 
5 | COc1ccc2c(c1)C(=O)N(CCc1ccc(S(=O)(=O)NC(=O)NC3CCCCC3)cc1)C(=O)C2(C)C [Gliquidone] | 1.17 ± 0.31 µM | ++ (moderately strong inhibitor (IC50 values between 1 and 5 μM)) | 7.45 ± 1.64 µM | + (moderate inhibitors (IC50 values between 5 and 10 μM)) |  |  |  |  |  | improve liver injury |  |  |  | 
6 | CS(=O)(=O)CCNCc1ccc(-c2ccc3ncnc(Nc4ccc(OCc5cccc(F)c5)c(Cl)c4)c3c2)o1 [Lapatinib] | > 10 µM and 33.8 µM | -+ (slight inhibitors (IC50 values above 10 μM)) | 0.37 ± 0.19 µM | +++ (strong inhibitor (IC50 values less than 1 μM)) | some literature reports for hepatotoxicity | causing hyperbilirubinemia |  |  |  |  | > 10 µM |  |  | 
7 | CN(C)c1cccc2c(S(=O)(=O)N[C@@H](Cc3ccc(OS(=O)(=O)c4cccc5c(N(C)C)cccc45)cc3)C(=O)O)cccc12 [N,O-Didansyl-L-Tyrosine] | 2.94 ± 0.75 µM | ++ (moderately strong inhibitor (IC50 values between 1 and 5 μM)) | 6.07 ± 0.56 µM | + (moderate inhibitors (IC50 values between 5 and 10 μM)) |  |  |  |  |  |  |  |  |  | 
8 | CO[C@H]1C[C@@H]2CC[C@@H](C)[C@@](O)(O2)C(=O)C(=O)N2CCCC[C@H]2C(=O)O[C@H]([C@H](C)C[C@@H]2CC[C@@H](O)[C@H](OC)C2)CC(=O)[C@H](C)/C=C(\C)[C@@H](O)[C@@H](OC)C(=O)[C@H](C)C[C@H](C)/C=C/C=C/C=C/1C [Rapamycin (Sirolimus)] |  | +++,+++ (strong inhibitor (IC50 values less than 1 μM)) | 0.62 ± 0.19 µM | +++,+++ (strong inhibitor (IC50 values less than 1 μM)) | some literature reports for hepatotoxicity | causing hyperbilirubinemia |  | 20 strongest OATP1B1 and OATP1B3 inhibitors | 20 strongest OATP1B1 and OATP1B3 inhibitors |  |  |  |  | 
9 | CC(=O)Nc1cccc(-n2c(=O)n(C3CC3)c(=O)c3c(Nc4ccc(I)cc4F)n(C)c(=O)c(C)c32)c1 [Trametinib] | > 10 µM and 30.8 µM | -+ (slight inhibitors (IC50 values above 10 μM)) | 0.34 ± 0.09 µM | +++ (strong inhibitor (IC50 values less than 1 μM)) |  |  |  |  |  |  | > 10 µM | elevating hepatic serum enzymes |  | 
10 | COc1cc(C(=O)NS(=O)(=O)c2ccccc2C)ccc1Cc1cn(C)c2ccc(NC(=O)OC3CCCC3)cc12 [Zafirlukast] | 4.96 ± 0.92 µM | ++ (moderately strong inhibitor (IC50 values between 1 and 5 μM)) | 7.84 ± 0.49 µM | + (moderate inhibitors (IC50 values between 5 and 10 μM)) | some literature reports for hepatotoxicity | causing hyperbilirubinemia |  |  |  |  |  |  |  | 
11 | O=C(O)c1cc(/N=N/c2ccc(S(=O)(=O)Nc3ccccn3)cc2)ccc1O [sulfasalazine] |  |  |  |  |  |  |  |  |  |  |  |  | inhibitor | noninhibitor
